# Measurements as given in publication PMC2556091 (The EMBO Journal, 2008).
# Target: T1, XcOGT (Xanthomonas campestris, UniProt Q8PC69)
# T1 sequence (Q8PC69 1-568): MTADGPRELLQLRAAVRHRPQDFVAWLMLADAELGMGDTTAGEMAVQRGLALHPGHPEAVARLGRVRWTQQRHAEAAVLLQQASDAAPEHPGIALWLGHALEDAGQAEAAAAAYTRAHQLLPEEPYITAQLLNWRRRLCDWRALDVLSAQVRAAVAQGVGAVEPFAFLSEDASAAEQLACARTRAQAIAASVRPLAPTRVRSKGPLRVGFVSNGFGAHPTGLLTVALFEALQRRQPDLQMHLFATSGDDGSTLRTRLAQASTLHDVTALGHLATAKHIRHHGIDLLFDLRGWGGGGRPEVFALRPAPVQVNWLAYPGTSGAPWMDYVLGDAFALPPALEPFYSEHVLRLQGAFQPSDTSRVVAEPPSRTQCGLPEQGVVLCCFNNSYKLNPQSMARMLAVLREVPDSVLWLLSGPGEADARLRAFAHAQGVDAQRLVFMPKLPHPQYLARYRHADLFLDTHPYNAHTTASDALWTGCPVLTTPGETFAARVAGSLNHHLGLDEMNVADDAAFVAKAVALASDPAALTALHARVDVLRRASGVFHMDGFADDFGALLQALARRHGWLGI
# Assay: surface plasmon resonance
# Type: binding
structure (smiles),measurement,value
CC(=O)N[C@H]1[C@@H](OP(=O)(O)OP(=O)(O)OC[C@H]2O[C@@H](n3ccc(=O)[nH]c3=O)[C@H](O)[C@@H]2O)O[C@H](CO)[C@@H](O)[C@@H]1O [UDP-GlcNAc],Kd,4.2 µM
